Test results from patent US9765037B2, “Compositions and methods for treating toxoplasmosis, cryptosporidiosis, and other apicomplexan protozoan related diseases” (University of Washington Through its Center for …, priority 2010, dated 2017).
Values after ≈ are worked out from the molar mass of the structure shown. One block for each compound: values may come before it.

Tests used:
PfCDPK1 = PfCDPK1 (Plasmodium falciparum (isolate 3D7), UniProt P62344); assay: biochemical
glioma derived (SF539) [1] = assay: Growth inhibition of human cell line SF539; conditions: 10 μM
human fibroblast = assay: Human fibroblast replication / cytotoxicity (Alamar blue); type: cell-based
[2] = tested on: human promyelocytic leukemia (HL-60); assay: Growth inhibition of human cell line HL-60; conditions: 10 μM
[3] = tested on: human lymphocyte (CRL8155); assay: Growth inhibition of human cell line CRL8155; conditions: 10 μM
glioma derived (SF539) [4] = conditions: human
[5] = Solubility in buffers of various pH; type: physicochemical; conditions: buffer, pH 6.5, aqueous buffer; read-out: Experimental Solubility pH 6.5
HckKD = HckKD (Homo sapiens (Human), UniProt P08631); assay: Tyrosine kinase IC50, HckKD; type: biochemical; conditions: Table 9
PfCDPK4 = PfCDPK4 (Plasmodium falciparum (isolate 3D7), UniProt Q8IBS5); assay: biochemical
[6] = tested on: colorectal carcinoma (HC 2998); assay: Growth inhibition of human cell line HC 2998; conditions: 10 μM
SrcKD = SrcKD (Homo sapiens (Human), UniProt P12931); assay: Tyrosine kinase IC50, SrcKD; type: biochemical; conditions: Table 9
Abl3D = Abl3D (Homo sapiens, UniProt P00519); assay: Tyrosine kinase IC50, Abl3D; type: biochemical; conditions: Table 9

Structure (SMILES): Nc1ncnc2c1c(-c1ccc3cc(OCc4ccccc4)ccc3c1)nn2CC1CCNCC1 [Compound 34, 3-(6-(benzyloxy)naphthalen-2-yl)-1-(piperidin-4-ylmethyl)-1H-pyrazolo[3,4-d]pyrimidin-4-amine]
EC50 (PfCDPK1): 0.0272 µM
Cell Toxicity SF539, % at 10 μM (glioma derived (SF539) [1]): 104%
Observed HFF Toxicity (T at concentration) (human fibroblast): T at 100 μM
Cell Toxicity HL60, % at 10 μM [2]: <30% at 10 μM
Cell Toxicity CRL8155, % at 10 μM [3]: <30% at 10 μM
Cell Toxicity LD50 SF539 (glioma derived (SF539) [4]): 6 µM
solubility [5]: 23 µM (≈ 10.7 µg/mL)
IC50 (HckKD): 1.61 µM
EC50 (PfCDPK4): 0.0302 µM
Cell Toxicity HCC2998, % at 10 μM [6]: 30% at 10 μM

IC50 (SrcKD): > 10 µM
IC50 (Abl3D): ~10 µM
Structure (SMILES): Nc1nc2ccc(C(=O)c3ccccc3)cc2[nH]1 [Compound 92]
